According to patent US7071335B2, “2-pyridinyl-1-piperazine therapeutic agents useful for treating pain” (Euro-Celtique S.A., priority 2002, dated 2006):

Tests used:
Type in all cases: cell-based
Human VR1 Receptor [1] = target: T1, Human VR1 Receptor (Homo sapiens, UniProt Q8NER1); test: Inhibition of capsaicin-induced activation of VR1; settings: mean ± SEM, n = number of experiments
Excerpt: (§1) Methods for assaying compounds capable of inhibiting VR1 are well known to those skilled in the art, for example, those methods disclosed in U.S. Pat. No. 6,239,267 to Duckworth et al.; U.S. Pat. No. 6,406,908 to McIntyre et al.; or U.S. Pat. No. 6,335,180 to Julius et al.

Human VR1 Receptor [2] = target: T1, Human VR1 Receptor; test: Inhibition of pH-induced activation of VR1; settings: mean ± SEM, n = number of experiments
Excerpt: as §1

rat mGluR5 = target: T2, rat mGluR5 (Rattus norvegicus, UniProt P31424); test: CHO assay: calcium mobilization flux (FLIPR) in CHO-rat mGluR5 cells in the presence of glutamate; settings: at a concentration of 10 μM, 10 uM glutamate
T2 construct: expressed in transfected cells; host or cells: CHO cells (CHO-rat mGluR5, kept under Geneticin selection)
T2 sequence (P31424 21-1203): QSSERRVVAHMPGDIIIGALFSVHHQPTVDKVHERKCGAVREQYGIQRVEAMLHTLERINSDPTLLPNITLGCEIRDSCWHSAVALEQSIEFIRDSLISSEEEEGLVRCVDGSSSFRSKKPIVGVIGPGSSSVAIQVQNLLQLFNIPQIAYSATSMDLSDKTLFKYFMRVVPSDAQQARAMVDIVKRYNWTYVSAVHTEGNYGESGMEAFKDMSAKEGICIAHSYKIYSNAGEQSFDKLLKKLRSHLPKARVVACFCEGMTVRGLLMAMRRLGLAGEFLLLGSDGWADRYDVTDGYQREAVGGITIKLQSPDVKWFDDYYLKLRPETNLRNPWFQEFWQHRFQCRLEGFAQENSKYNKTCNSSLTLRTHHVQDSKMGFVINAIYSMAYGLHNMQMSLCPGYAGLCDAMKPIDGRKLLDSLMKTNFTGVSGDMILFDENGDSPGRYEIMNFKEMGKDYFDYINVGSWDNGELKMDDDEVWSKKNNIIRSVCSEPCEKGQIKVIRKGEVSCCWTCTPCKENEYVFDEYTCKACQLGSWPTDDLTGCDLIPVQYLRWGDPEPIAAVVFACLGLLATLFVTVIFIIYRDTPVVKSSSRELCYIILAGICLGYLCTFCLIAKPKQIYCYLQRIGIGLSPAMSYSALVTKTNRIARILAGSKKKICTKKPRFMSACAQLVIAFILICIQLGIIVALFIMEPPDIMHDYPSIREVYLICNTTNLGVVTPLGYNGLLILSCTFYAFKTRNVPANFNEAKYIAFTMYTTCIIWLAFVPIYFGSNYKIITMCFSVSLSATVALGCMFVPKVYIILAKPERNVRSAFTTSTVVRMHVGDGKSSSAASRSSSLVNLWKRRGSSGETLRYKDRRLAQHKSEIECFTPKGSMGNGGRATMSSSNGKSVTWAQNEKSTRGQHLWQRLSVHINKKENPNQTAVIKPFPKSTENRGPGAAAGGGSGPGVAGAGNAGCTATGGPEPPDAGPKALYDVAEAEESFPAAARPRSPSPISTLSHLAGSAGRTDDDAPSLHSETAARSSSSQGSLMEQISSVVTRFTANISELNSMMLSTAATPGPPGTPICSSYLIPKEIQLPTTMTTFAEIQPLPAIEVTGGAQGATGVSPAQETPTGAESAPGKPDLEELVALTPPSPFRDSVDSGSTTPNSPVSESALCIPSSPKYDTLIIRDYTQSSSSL
Procedure: 40,000 CHO-rat mGluR5 cells/well were plated into 96 well plate (Costar 3409, Black, clear bottom, 96 well, tissue culture treated) for an overnight incubation in Dulbelcco's Modified Eagle's Medium (DMEM, pH 7.4) and supplemented with glutamine, 10% FBS, 1% Pen/Strep, and 500 ug/ml Geneticin. CHO-rat mGluR5 cells were washed and treated with Optimem medium and incubated for 1–4 hours prior to loading cells. […] The plates containing the CHO-rat mGluR5 cells were then transferred to Fluorometric Imaging Plate Reader (FLIPR) (commercially available from Molecular Devices Corporation of Sunnyvale, Calif.) for the assessment of calcium mobilization flux in the presence of glutamate and in the presence or absence of test compounds. After monitoring fluorescence for 15 seconds to establish a base line, DMSO solutions containing various concentrations of the test compound diluted in loading buffer (0.05 mL of 4× dilutions for the competition curves) were added to the cell plate and fluorescence was monitored for 2 minutes. […] Plate fluorescence is then monitored for an additional 60 seconds after agonist addition. […] In each experiment, fluorescence is monitored as a function of time and the data analyzed using Microsoft Excel and GraphPad Prism. […] In each experiment each data point was determined two times.

T1 sequence (Q8NER1 whole entry): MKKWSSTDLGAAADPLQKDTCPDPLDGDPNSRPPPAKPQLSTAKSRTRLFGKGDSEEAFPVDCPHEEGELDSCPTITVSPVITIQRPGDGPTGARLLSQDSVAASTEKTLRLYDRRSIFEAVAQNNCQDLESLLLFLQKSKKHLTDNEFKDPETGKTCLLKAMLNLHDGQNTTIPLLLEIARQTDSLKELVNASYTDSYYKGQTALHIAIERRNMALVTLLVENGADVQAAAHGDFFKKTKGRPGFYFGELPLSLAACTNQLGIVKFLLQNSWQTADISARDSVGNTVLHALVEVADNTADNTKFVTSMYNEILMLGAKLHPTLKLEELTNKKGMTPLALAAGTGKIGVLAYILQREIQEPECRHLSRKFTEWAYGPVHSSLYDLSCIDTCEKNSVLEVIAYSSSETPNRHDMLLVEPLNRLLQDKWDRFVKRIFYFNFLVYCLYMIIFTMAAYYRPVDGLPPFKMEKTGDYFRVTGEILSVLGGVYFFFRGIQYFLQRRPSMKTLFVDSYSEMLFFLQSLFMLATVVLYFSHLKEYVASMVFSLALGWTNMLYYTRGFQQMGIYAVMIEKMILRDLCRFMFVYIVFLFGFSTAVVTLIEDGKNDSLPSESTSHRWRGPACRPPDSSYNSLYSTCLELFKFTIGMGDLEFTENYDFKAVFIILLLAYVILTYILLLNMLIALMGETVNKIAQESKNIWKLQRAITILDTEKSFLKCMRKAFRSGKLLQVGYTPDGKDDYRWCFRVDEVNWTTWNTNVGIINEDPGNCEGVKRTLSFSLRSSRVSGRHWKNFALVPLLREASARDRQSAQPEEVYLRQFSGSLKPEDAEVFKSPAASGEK

IC50 (Human VR1 Receptor [1]) [nM] | IC50 (Human VR1 Receptor [2]) [nM] | inhibition of mGluR5 (rat mGluR5) | Compound
1.3 ± 1.2 | 5.4 ± 2.5 |  | CC(C)(C)c1ccc(NC(=O)N2CCN(c3ncccc3F)CC2)cc1
 |  | inhibits | Cc1cccc(CCNC(=O)N2CCN(c3ncccc3Cl)C[C@H]2C)c1C
